Test results: patent publication US7638648B2, “Compounds having selective cytochrome P450RAI-1 or selective cytochrome P450RAI-2 inhibitory activity and methods of obtaining the same” (Allergan Inc., priority 2003, dated 2009)

Tests used:
P450RAI-1 = molecular target: T1, P450RAI-1 (Homo sapiens, UniProt O43174); test: P450RAI-1 cell-based inhibitor assay (inhibition of all-trans-RA metabolism); settings: P450RAI-1 stably transfected HeLa cells, [3H]-RA, 3 hours at 37° C.; read-out: P450RAI-1 Whole cell IC50
T1 construct: expressed in transfected cells; host or cells: HeLa
T1 sequence (O43174 1-497): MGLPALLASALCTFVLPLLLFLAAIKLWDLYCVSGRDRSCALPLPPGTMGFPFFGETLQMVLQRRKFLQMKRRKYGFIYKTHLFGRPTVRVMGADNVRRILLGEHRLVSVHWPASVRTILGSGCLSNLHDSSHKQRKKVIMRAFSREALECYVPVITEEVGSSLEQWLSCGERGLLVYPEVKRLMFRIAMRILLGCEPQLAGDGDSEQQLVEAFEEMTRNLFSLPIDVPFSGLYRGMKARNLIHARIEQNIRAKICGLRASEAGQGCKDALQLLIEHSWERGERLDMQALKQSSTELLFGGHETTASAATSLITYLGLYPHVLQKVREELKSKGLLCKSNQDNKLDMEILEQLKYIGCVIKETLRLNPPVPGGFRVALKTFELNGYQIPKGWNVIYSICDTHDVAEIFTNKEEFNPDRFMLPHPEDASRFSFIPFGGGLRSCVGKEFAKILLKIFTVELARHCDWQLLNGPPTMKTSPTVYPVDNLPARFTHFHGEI
Description: (§1) P450RAI-1 and P450RAI-2 Cell-Based Inhibitor Assay:
(§2) P450RAI-1 stably transfected HeLa cells, or P450RAI-2 stably transfected HeLa cells, as applicable, are maintained in […] tissue culture dishes in Modified Eagle's Medium (MEM) containing 10% Fetal Bovine Serum (FBS) and 100 μg/ml hygromycin. Exponentially growing cells are harvested by incubating in trypsin. Cells are then washed with 1× Phosphate Buffered Saline (PBS) and plated in a 48-well plate at 5×10^5 cells in 0.2 ml MEM medium containing 10% FBS and 0.05 μCi [^3H]—RA in the presence or absence of increasing concentrations of the test compounds. The compounds are diluted in 100% DMSO and then added in triplicate wells at either 10, 1 or 0.1 μM final concentration. As a positive control for RA metabolism inhibition, cells are also incubated with ketoconazole at 100, 10 and 1 μM. Cells are incubated for 3 hours at 37° C. The retinoids are then extracted using the procedure of Bligh et al. (1959) Canadian Journal of Biochemistry 37, 911-917, modified by using methylenechloride instead of chloroform. The publication Bligh et al. (1959) Canadian Journal of Biochemistry 37, 911-917 is specifically incorporated herein by reference. The water soluble radioactivity is quantified using a β-scintillation counter. […]

RAR γ [1] = molecular target: T2, RAR γ (Homo sapiens, UniProt P13631); test: RARγ EC50/efficacy (Table 1); assay type: cell-based; settings: value in parentheses
T2 sequence (P13631 1-454): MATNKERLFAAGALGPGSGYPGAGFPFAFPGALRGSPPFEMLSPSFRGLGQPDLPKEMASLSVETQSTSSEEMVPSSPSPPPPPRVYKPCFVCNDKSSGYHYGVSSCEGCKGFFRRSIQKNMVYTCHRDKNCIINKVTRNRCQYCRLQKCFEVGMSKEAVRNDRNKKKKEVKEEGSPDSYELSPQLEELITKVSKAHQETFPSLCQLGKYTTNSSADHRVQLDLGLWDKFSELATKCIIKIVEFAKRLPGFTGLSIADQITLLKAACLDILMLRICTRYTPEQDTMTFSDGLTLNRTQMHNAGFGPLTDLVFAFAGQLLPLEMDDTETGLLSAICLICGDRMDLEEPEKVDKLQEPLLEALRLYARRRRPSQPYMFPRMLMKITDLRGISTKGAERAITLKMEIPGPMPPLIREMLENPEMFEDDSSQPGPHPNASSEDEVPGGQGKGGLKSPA

RAR α = molecular target: T3, RAR α (Homo sapiens, UniProt P10276); test: RARα binding Kd (Table 1); settings: last item of cell
T3 sequence (P10276 1-462): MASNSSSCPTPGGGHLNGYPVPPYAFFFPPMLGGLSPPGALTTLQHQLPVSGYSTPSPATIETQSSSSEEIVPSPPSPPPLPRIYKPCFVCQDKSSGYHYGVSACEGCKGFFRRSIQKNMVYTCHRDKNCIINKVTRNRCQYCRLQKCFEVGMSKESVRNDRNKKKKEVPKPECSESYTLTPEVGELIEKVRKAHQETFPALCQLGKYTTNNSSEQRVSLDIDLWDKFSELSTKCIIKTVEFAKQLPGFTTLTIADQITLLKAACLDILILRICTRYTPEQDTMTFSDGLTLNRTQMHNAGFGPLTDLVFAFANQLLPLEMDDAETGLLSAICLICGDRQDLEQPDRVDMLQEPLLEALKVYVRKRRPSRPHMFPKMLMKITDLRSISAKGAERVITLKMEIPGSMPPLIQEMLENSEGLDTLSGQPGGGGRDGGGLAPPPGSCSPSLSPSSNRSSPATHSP

RAR β = molecular target: T4, RAR β (Homo sapiens, UniProt P10826); test: RARβ binding Kd (Table 1); settings: last item of cell
T4 sequence (P10826 1-455): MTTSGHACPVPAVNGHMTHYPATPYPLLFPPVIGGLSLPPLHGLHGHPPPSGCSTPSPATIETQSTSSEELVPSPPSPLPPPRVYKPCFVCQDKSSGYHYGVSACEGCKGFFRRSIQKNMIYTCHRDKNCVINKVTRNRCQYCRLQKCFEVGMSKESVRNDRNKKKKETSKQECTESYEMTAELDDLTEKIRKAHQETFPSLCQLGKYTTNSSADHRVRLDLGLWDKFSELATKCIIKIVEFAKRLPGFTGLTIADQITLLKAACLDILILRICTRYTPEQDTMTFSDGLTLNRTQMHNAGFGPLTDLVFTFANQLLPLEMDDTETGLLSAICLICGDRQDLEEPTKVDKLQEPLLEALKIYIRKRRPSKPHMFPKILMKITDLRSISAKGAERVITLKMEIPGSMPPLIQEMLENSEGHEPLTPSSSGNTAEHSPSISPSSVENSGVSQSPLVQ

RAR γ [2] = molecular target: T2, RAR γ; test: RARγ binding Kd (Table 1); settings: last item of cell
P450RAI-2 = molecular target: T5, P450RAI-2 (Homo sapiens, UniProt Q9NR63); test: P450RAI-2 cell-based inhibitor assay (inhibition of all-trans-RA metabolism); settings: P450RAI-2 stably transfected HeLa cells, [3H]-RA, 3 hours at 37° C.; read-out: P450RAI-2 Whole cell IC50
T5 construct: expressed in transfected cells; host or cells: HeLa
T5 sequence (Q9NR63 1-512): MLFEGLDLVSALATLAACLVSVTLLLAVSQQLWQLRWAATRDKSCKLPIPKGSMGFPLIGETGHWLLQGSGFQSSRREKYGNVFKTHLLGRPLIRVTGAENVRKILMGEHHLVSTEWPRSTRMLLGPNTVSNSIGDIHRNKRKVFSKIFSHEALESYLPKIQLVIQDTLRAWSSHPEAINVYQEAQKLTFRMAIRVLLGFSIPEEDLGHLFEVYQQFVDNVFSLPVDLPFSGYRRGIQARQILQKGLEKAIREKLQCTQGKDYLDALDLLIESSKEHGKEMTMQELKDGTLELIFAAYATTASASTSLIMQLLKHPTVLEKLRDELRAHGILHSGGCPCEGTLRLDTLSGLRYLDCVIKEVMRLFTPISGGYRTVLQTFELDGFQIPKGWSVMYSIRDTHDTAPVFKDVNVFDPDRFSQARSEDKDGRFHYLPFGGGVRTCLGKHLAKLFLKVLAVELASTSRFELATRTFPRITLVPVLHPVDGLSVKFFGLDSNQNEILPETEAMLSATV
Description: as §1, §2

CC(C)c1cc(C(=O)Oc2ccc(/C=C/C(=O)O)cc2)cc2c1OC(C)(C)CC2(C)C [Compound 16, 8-Isopropyl-2,2,4,4-tetramethyl-chroman-6-carboxylic acid 4-(2-carboxy-vinyl)-phenyl ester]
IC50 (P450RAI-1): 1.3 µM

C=Cc1c(C)c(C#Cc2ccc(CC(=O)O)cc2)cc(C(C)(C)C)c1OC(C)C [Compound 46, [4-(5-tert-Butyl-4-isopropoxy-2-methyl-3-vinyl-phenylethynyl)-phenyl]-acetic acid]
RAR γ (EFFICACY) (RAR γ [1]): 68

CN(C1CC1)C1CCC(C)(C)c2cc(C#Cc3ccc(/C=C/C(=O)O)cc3)cc(C3CC3)c21 (stereo not drawn) [Compound 48, 3-{4-[4-Cyclopropyl-5-(cyclopropyl-methyl-amino)-8,8-dimethyl-5,6,7,8-tetrahydro-naphthalen-2-ylethynyl]-phenyl}-acrylic acid]
Kd (RAR α): > 10 µM
Kd (RAR β): > 10 µM
Kd (RAR γ [2]): > 10 µM

CC(C(=O)O)c1ccc(C#Cc2cc(C3CC3)c3c(c2)C(C)(C)CCC3N(C)C2CC2)cc1 (stereo not drawn) [Compound 49, 2-{4-[4-Cyclopropyl-5-(cyclopropyl-methyl-amino)-8,8-dimethyl-5,6,7,8-tetrahydro-naphthalen-2-ylethynyl]-phenyl}-propionic acid]
IC50 (P450RAI-2): > 10 µM
